Laboratory results taken from patent US7105566B2, “Methods of treatment during vascular procedures” (Allergan, Inc., priority 2002, dated 2006).
Entries after “also recorded” stand apart in the source; their conditions may differ.

What was measured:
[1] = Serum concentration of Compound 1 in male cynomolgus monkeys; type: in vivo, cynomolgus monkey; conditions: given orally
Protocol: (§1) Five male cynomologus monkeys were employed in the study. Three of the five monkeys were treated with Compound 1 at a daily dosage of 1.25 mg/kg (orally) for a period of 25 days. Compound 1 is an RAR antagonist or inhibitor. The remaining two were similarly treated with a vehicle to serve as control. Serum samples were collected on days 1, 8, 15, 22 and 25 for triglyceride determination. Serum samples from days 8, 15, 22 and 25 were also assayed for the concentration of Compound 1.

male cynomologus monkeys = assay: Clinical observation, body weight and food consumption of treated monkeys; type: in vivo, cynomolgus monkey; conditions: daily 1.25 mg/kg orally for 25 days
Protocol: as §1

SMILES: CCc1ccc(C2=CC(C)(C)Sc3ccc(C#Cc4ccc(C(=O)O)cc4)cc32)cc1 [Compound 1, 4-[[4-(4-ethylphenyl)-2,2-dimethyl-(2H)-thiochromen-6-yl]-ethynyl]-benzoic acid]
- oral absorption [1]: well absorbed
- body weight or rate of food consumption (male cynomologus monkeys): no change
- general health / clinical signs (male cynomologus monkeys; 1.25 mg/kg): appeared healthy; also recorded: without any noticeable abnormal clinical signs
